Test results: paper doi:10.1101/416081v1 (biorxiv, 2018)

Biological target: T1, reTAPON1-LIKE (Trichoderma atroviride, UniProt A0A4D6GQM1)
T1 construct: 30-aa signal peptide removed (438-residue ORF, 1317 bp), N-terminal GST tag kept (pGEX-4T-1), E. coli Origami B (DE3), about 71 kDa fusion
Assay type: biochemical
Conditions: 25 °C

COP(=O)(OC)OC=C(Cl)Cl [Dichlorvos, 2,2-dichlorovinyl dimethyl phosphate]
Km: 230 ± 20 µM

CNC(=O)CSP(=O)(OC)OC [Omethoate]
Km: 790 ± 120 µM

CCOC(=O)CC(SP(=O)(OC)OC)C(=O)OCC (centres unmarked) [Malaoxon]
Km: 720 ± 10 µM

COC(=O)C=C(C)OP(=O)(OC)OC [Mevinphos]
Km: 440 ± 40 µM

CCOP(=O)(OCC)Oc1nc(Cl)c(Cl)cc1Cl [Chlorpyrifos-oxon]
Km: 320 ± 50 µM
